Measurements published in patent US20260209220A1, “SUBSTITUTED TETRAHYDROPYRROLO-PYRIDINONE COMPOUNDS AND THEIR USE IN TREATING MEDICAL CONDITIONS” (Karuna Therapeutics, Inc., priority 2022, published 2026).

Experiments:
[1] = target: T1, hM4 receptors (Homo sapiens, UniProt P08173); test: Human M4 PAM PERK assay (CHO cells, TR-FRET, with EC20 acetylcholine); format: cell-based
T1 construct: expressed in transfected cells; host or cells: CHO cells
T1 sequence (P08173 1-479): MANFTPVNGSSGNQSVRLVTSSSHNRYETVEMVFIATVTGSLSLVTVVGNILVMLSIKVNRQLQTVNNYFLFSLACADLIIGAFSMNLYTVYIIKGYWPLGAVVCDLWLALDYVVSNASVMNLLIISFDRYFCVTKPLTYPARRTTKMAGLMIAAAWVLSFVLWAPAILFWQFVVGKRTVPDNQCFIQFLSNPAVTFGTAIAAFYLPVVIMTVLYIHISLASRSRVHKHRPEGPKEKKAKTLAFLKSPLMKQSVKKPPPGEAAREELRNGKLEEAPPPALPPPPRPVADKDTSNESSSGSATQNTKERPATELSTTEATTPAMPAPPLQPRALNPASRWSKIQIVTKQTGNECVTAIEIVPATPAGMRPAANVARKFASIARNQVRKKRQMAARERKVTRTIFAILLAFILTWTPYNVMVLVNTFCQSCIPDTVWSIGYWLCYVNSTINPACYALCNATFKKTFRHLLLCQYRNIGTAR
Summary of the method: (§1)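 CHO cells expressing human or rat M4, serum-starved 4 h, then given compound (10-point, 10 μM top, ½-log) with EC20 acetylcholine (10 nM final) for 5 min at 37 °C. Lysates assayed for phospho-ERK by TR-FRET after 2 h detection at RT.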

[2] = target: T2, rM4 receptors (Rattus norvegicus, UniProt P08485); test: Rat M4 PAM PERK assay (CHO cells, TR-FRET, with EC20 acetylcholine); format: cell-based
T2 construct: expressed in transfected cells; host or cells: CHO cells
T2 sequence (P08485 1-478): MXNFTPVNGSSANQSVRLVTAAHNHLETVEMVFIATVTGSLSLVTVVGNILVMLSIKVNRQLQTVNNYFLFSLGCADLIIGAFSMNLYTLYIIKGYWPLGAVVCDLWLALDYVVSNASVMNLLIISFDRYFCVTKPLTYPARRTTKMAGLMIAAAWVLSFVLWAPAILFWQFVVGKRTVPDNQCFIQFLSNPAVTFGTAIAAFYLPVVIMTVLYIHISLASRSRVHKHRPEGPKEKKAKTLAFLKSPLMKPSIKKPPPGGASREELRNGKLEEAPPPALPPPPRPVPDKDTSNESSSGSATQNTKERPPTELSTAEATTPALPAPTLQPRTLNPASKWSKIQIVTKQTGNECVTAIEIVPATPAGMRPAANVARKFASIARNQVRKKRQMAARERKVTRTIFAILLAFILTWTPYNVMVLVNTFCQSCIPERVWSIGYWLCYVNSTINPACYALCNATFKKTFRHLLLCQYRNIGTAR
Summary of the method: as §1

[3] = target: T3, human M4 receptor (Homo sapiens, UniProt P08173); test: M4 GTPγS PAM assay (CHO-K1 membranes, 35S-GTP binding, with EC20 acetylcholine); format: biochemical; conditions: with EC20 acetylcholine (40 nM)
T3 construct: expressed in transfected cells; host or cells: CHO-K1 cells (membranes)
T3 sequence (P08173 1-479): T1 sequence (P08173 1-479)
Summary of the method: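 Membranes from CHO-K1 cells stably expressing human M4 ([…]) in 20 mM HEPES, 10 mM MgCl2, 100 mM NaCl, with 0.1 μM GDP final, were preincubated with compound 10-15 min at RT. Acetylcholine at EC20 (40 nM final) was added for 10-15 min, then 0.4 nM 35S-GTP solution for 1 h at RT. Filter-bound radioactivity was counted.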

Compound: Cc1cc(=O)n(C)c2c1CN(C(=O)CC1CN(c3nc(C(F)(F)F)cs3)C1)C2 [Compound I-31]
- EC50 [1]: 50 to 200 nM
- EC50 [2]: 50 to 200 nM
- EC50 [3]: 200 to 1000 nM

Compound: Cc1c2c(n(C)c(=O)c1C)CN(C(=O)CC1CN(c3cc(F)cc(F)c3)C1)C2 [Compound I-56]
- EC50 [1]: < 50 nM
- EC50 [2]: 50 to 200 nM
- EC50 [3]: 50 to 200 nM

Compound: Cc1c2c(n(C)c(=O)c1Cl)CN(C(=O)CC1CN(c3ccc(C(F)(F)F)nc3)C1)C2 [Compound I-78]
- EC50 [1]: < 50 nM
- EC50 [2]: 50 to 200 nM
- EC50 [3]: 50 to 200 nM

Compound: Cc1cc(=O)n(C)c2c1CN(C(=O)CC1CN(c3ccc(C4CC4)cc3)C1)C2 [Compound I-19]
- EC50 [1]: 200 to 1000 nM
- EC50 [2]: 50 to 200 nM
- EC50 [3]: 50 to 200 nM

Compound: Cc1c2c(n(C)c(=O)c1C)CN(C(=O)CC1CN(c3ccc(C(C)(C)O)c(F)c3)C1)C2 [Compound I-59]
- EC50 [1]: < 50 nM
- EC50 [2]: 50 to 200 nM
- EC50 [3]: < 50 nM

Compound: Cc1cc(=O)n(C)c2c1CN(C(=O)CC1CN(c3ccc(C#N)c(C(F)(F)F)c3)C1)C2 [Compound I-27]
- EC50 [1]: 50 to 200 nM
- EC50 [2]: 50 to 200 nM
- EC50 [3]: 50 to 200 nM

Compound: Cc1c2c(n(C)c(=O)c1C)CN(C(=O)CC1CN(c3ccc(C4CC4)c(F)c3)C1C)C2 (single isomer, unassigned) [Compound I-62]
- EC50 [1]: 200 to 1000 nM
- EC50 [2]: 200 to 1000 nM
- EC50 [3]: 200 to 1000 nM

Compound: Cc1c2c(n(C)c(=O)c1C)CN(C(=O)CC1CN(c3ccc(F)c(OC4CC4)c3)C1)C2 [Compound I-63, 6-(2-(1-(3-cyclopropoxy-4-fluorophenyl)azetidin-3-yl)acetyl)-1,3,4-trimethyl-1,5,6,7-tetrahydro-2H-pyrrolo[3,4-b]pyridin-2-one]
- EC50 [1]: 200 to 1000 nM
- EC50 [2]: 200 to 1000 nM
- EC50 [3]: < 50 nM

Compound: Cc1cc(=O)n(C)c2c1CN(C(=O)CC1CN(c3ccnc(C(F)(F)F)n3)C1)C2 [Compound I-23]
- EC50 [1]: 200 to 1000 nM
- EC50 [2]: 200 to 1000 nM
- EC50 [3]: 200 to 1000 nM

Compound: Cc1cc(=O)n(C)c2c1CN(C(=O)CC1CN(c3nc(C4CC4)ns3)C1)C2 [Compound I-35]
- EC50 [1]: 50 to 200 nM
- EC50 [2]: 50 to 200 nM
- EC50 [3]: 50 to 200 nM

Compound: Cc1cc(=O)n(C)c2c1CN(C(=O)CC1CN(c3ncc(C(F)(F)F)s3)C1)C2 [Compound I-29]
- EC50 [1]: 50 to 200 nM
- EC50 [2]: 200 to 1000 nM
- EC50 [3]: 50 to 200 nM

Compound: Cc1cc(=O)n(C)c2c1CN(C(=O)CC1CN(c3ccc(OC(F)(F)F)cc3)C1)C2 [Compound I-12]
- EC50 [1]: 200 to 1000 nM
- EC50 [2]: 200 to 1000 nM
- EC50 [3]: 50 to 200 nM

Compound: Cc1cc(=O)n(C)c2c1CN(C(=O)CC1CN(c3cc(F)cc(F)c3)C1)C2 [Compound I-36]
- EC50 [1]: < 50 nM
- EC50 [2]: 200 to 1000 nM
- EC50 [3]: < 50 nM

Compound: COc1cc(N2CC(CC(=O)N3Cc4c(C(F)(F)F)cc(=O)n(C)c4C3)C2)ccn1 [Compound I-92]
- EC50 [1]: 200 to 1000 nM
- EC50 [2]: > 1000 nM
- EC50 [3]: > 1000 nM

Compound: Cc1c2c(n(C)c(=O)c1C)CN(C(=O)CC1CN(c3ncns3)C1)C2 [Compound I-44]
- EC50 [1]: < 50 nM
- EC50 [2]: 200 to 1000 nM
- EC50 [3]: 50 to 200 nM
